# How the values were obtained:
# [1] = tested on: murine heart allograft; experiment: Murine heart allograft survival, C57B1/6 donor to CBA recipient; assay type: in vivo, mice
# Protocol: Following the procedure set forth in Example 2C, daily administration of B2702.75-84 (80 mg/kg/day:ip) to CBA mice with (H-2^k) recipients of a C57B1/6 with (H-2^b) murine heart allograft prolonged graft survival to 11.4±2.6 days compared to 7.5±1.2 days in untreated control animals (n=8; p<0.01, Mann-Whitney U Test). The therapy using the same compound starting at day 5 after transplantation, prolonged graft survival to 9.2±0.4 days (n=5; p<0.02) indicating the subject composition could be useful in an ongoing rejection episode. In combination with a subtherapeutic dose of cyclosporin A (2.7 mg/kg/day; ip; day 0–4) the subject peptide prolonged graft survival to at least 45 days (3 grafts out of 4 still beating) compared to a median graft survival of 14 days in animals that received cyclosporin A monotherapy.
# When the B2702.75-84 was prepared as the D-isomer (all amino acids in the D-form) and administered to murine graft recipients at 10 mg/kg/day (ip; day 0–10), graft survival was prolonged to more than 22 days in 4 out of 5 animals (4 grafts out of 5 still beating).
# [2] = tested on: purified T cells; experiment: Proliferation assay: purified T cells stimulated by immobilized anti-CD3, 3H-thymidine incorporation; assay type: cell-based, human
# Protocol: Cells and Cell Culture. PBL were isolated from normal donors by centrifugation over Ficoll-Hypaque. In some cases, T cells were purified from this preparation using the method of Secrist et al. [J. Exp. Med. (1993) 178:2123]. Briefly, cells isolated over Ficoll-Hypaque were incubated for 1 hour in Petri dishes. Nonadherent cells were passed over a nylon wool column and the resulting population was >90% CD3+ by FACS analysis. CD8+CTL lines specific for HLA-A2, B7, B27, B48, or Cw4 were generated and maintained in long-term culture as previously described [Buxton et al., J. Exp. Med. (1992) 175:809; Wesley et al., Hum. Immunol. (1993) 36:149]. Jurkat E6-1 and the T cell receptor negative Jurkat, JRT3-T3.5, were obtained from the American Type Culture Collection (ATCC; Rockville, Md.). Other cell lines used included the EBV transformed B cell lines JY, MS, C1R, and 721.221; K562 and HEL, erythroleukemia cell lines; the T cell tumors Peer, Hut-78 and HSB; the Burkitt's lymphoma cell lines Daudi and SUP B17 [Wright et al., J. Exp. Med. (1989) 169:1557], and the NK-like cell line YT2C2. […]
# Proliferation Assay. […] Plates were harvested on a PHD Cell Harvester 24 hours later and [^3H]-thymidine incorporation determined by scintillation counting.
# Peptides were evaluated for effects on the proliferation of purified T cells stimulated by immobilized anti-CD3 antibody. […]
# [3] = tested on: Lew specific CTL precursors in splenocytes; experiment: Limiting dilution assay for CTL precursors in splenocytes after in vivo peptide; set-up: species or system rat; settings: for [CTL precursor frequency]^−1: PVG rats, single iv 2 mg, Lew stimulators
# Protocol: The effect of peptides on CTL precursor frequencies in splenocytes was tested as follows. Limiting dilution analysis was carried out essentially as described (Moeller et al. 1993, supra; Skinner and Marbrook. J. Exp. Med. (1976) 143:1562). Briefly, spleens were removed from naive animals or from animals that had received an allograft a minimum of 60 days earlier and then teased into a single cell suspension. Responder cells were plated from 1000 to 40,000 cells per well (24 replicates per concentration) into round bottom microliter wells in RPMI 1640 supplemented with 10% fetal bovine serum (Hyclone, Logan, Utah), 2 mM L-glutamine, 5×10^−5M β-mercaptoethanol, 100 U/ml penicillin, 100 μg/ml streptomycin, 20% supernatant from Concanavalin A activated rat spleen cells, and 50 μM α-methyl mannoside. Then, 5×10^5 irradiated (2000 rads) stimulator cells were added to each well and plates were incubated in a humidified CO2 incubator. After 5 days, aliquots were removed and tested for lysis of ^51Cr-labeled Concanavalin A activated blasts. Aliquots of supernatant were counted in a gamma counter and CTL precursor frequency determined by linear regression (Skinner and Marbrook. 1976, supra). Wells were considered positive if specific release was >10%.
# PVG (RT1^c) or ACI […] rats were treated with a single intravenous injection of saline or 2 mg of A2.75-84, B7.75-84, B2702.75-84, or RT1^a.75-84 peptide. Their spleens were removed on different days after peptide treatment, cultured under limiting dilution conditions for 5 days with irradiated (2000R) splenocytes from Lewis rats; i.e., Lew (RT1^1) stimulator cells, and assayed for lysis of ^51Cr-labeled Lew blasts. CTL precursor frequency was determined by linear regression analysis.
# [4] = tested on: popliteal lymph node cells; experiment: Lymph node proliferation assay (footpad injection of splenocytes); assay type: in vivo, rat; settings: treated within 24 hours of footpad injection; compared with approximately 3:1
# Protocol: ACI or PVG rats (200 g) were injected intravenously with peptides dissolved in saline on day 0. On the indicated days thereafter, the left rear footpads of the rats were injected with 5×10^6 splenocytes from a syngeneic donor and the right rear footpads with 5×10^6 splenocytes from an allogeneic Lew donor (Moeller et al. Transplantation (1993) 55:650). See also Twist and Barnes Transplantation (1973) 15:182; Fanslow et al. Science (1990) 248:739). Seven days after the footpad injection, the animals were sacrificed and the popliteal lymph nodes removed. A single cell suspension was prepared, and the cell number determined using a hemocytometer.
# PVG or ACI rats (3 per group) were given a single intravenous injection of 2 mg of each of the four peptides or saline. On the day of treatment, or on days 1, 7, or 10 after treatment, the right footpads were injected with 5×10^6 syngeneic splenocytes while the left footpads were injected with 5×10^6 allogeneic Lew splenocytes. Seven days after the footpad injections, the draining lymph nodes were removed, a single cell suspension was prepared, and the cell number determined.
sequence,measurement,setting,value
RENLRIALRY [B2702.75–84],graft survival,"[1]; 80 mg/kg/day ip daily, untreated 7.5±1.2 days, n=8",11.4 ± 2.6 days
same,graft survival,[1]; peptide plus subtherapeutic cyclosporin A 2.7 mg/kg/day ip day 0–4,at least 45 days
same,graft survival,"[1]; therapy starting at day 5 after transplantation, n=5",9.2 ± 0.4 days
same,inhibition of proliferation of purified T cells stimulated by immobilized anti-CD3 antibody,[2],do not
same,[CTL precursor frequency]^−1,[3]; 0 days after peptide injection,"54,631"
same,[CTL precursor frequency]^−1,[3]; 1 day after peptide injection,"54,631"
same,[CTL precursor frequency]^−1,[3]; 7 days after peptide injection,"465,572"
same,[CTL precursor frequency]^−1,[3]; 10 days after peptide injection,"468,071"
same,precursor frequency of Lew specific cells in splenocytes,"[3]; treated on the day of splenectomy or 24 hours earlier, compared with approximately 1 in 55,000",The same frequency
same,ratio of cells recovered from side injected with allogeneic versus syngeneic cells,[4],A similar ratio
